Data published in article PMC6271099, “Synthesis and Biological Evaluation of Novel 2-Methoxypyridylamino-Substituted Riminophenazine Derivatives as Antituberculosis Agents” (Molecules, 2014).
≈ marks a conversion by molar mass, not a printed value.

Legend:
[1] = Cytotoxicity using Vero cells; conditions: African green monkey, Vero cells
[2] = Preliminary multidose in vivo toxicity study in mice; conditions: oral 500 mg/kg once daily for 4 days; for Safety in mice (in words): 7-day observation; for Number of animals that survived/Total number of animals: followed by 7-day observation
M. tuberculosis H37Rv [3] = assay: Microplate Alamar Blue Assay (MABA), in vitro antituberculosis activity (MIC); format: cell-based; conditions: Mycobacterium tuberculosis, 96-well plate
M. tuberculosis H37Rv [4] = assay: In vivo acute M. tuberculosis H37Rv infection assay in mice; parameters: species or system Mycobacterium tuberculosis; conditions: for logCFU/lung: BALB/c mice infected with M. tuberculosis H37Rv, 20 mg/kg, after 30 days of treatment, mean ± SD, n = 5
[5] = as compared to CFZ
[6] = Preliminary mouse pharmacokinetic study; conditions: plasma, po, 20 mg/kg
Vero cells = assay: Cytotoxicity using Vero cells
[7] = mouse model infected by M. tuberculosis H37Rv

SMILES	IC50 [1] [µg/mL]	MIC (M. tuberculosis H37Rv [3]) [µg/mL]	melting point [°C]	SI (selectivity index IC50/MIC) (Vero cells)	other results
COc1ncccc1Nc1cc2nc3ccccc3n(-c3ccc(Cl)c(Cl)c3)c-2cc1=NC1CC1 [Compound 22, 5-(3,4-Dichlorophenyl)-3-cyclopropylimino-2-(2-methoxy-3-pyridyl)amino-3,5-dihydrophenazine]	> 64	0.025 (≈ 0.0498 µM)			Safety in mice (in words) [2]: good safety; Number of animals that survived/Total number of animals [2]: 6/6; logCFU/lung (M. tuberculosis H37Rv [4]): 8.06 ± 0.13; Efficacy in mouse model (in words) (M. tuberculosis H37Rv [4]; [7]): failed to display efficacy
COc1ncccc1Nc1cc2nc3ccccc3n(-c3ccc(F)c(F)c3)c-2cc1=NC(C)C [Compound 15, 5-(3,4-Difluorophenyl)-3-isopropylimino-2-(2-methoxy-3-pyridyl)amino-3,5-dihydrophenazine]	> 64	0.066 (≈ 0.14 µM)			Discoloration of the ears, internal organs and fat tissues of the mice [5]: less intense; AUC(0-t) [6]: 21200 ng·h/mL; Cmax [6]: 1840 ng/mL; Tmax [6]: 2 h; half-life [6]: 13.8 h; Safety in mice (in words) [2]: good safety; Number of animals that survived/Total number of animals [2]: 5/5; logCFU/lung (M. tuberculosis H37Rv [4]): 4.56 ± 0.38; Efficacy in mouse model (in words) (M. tuberculosis H37Rv [4]; [7]): excellent efficacy; Reduction of bacterial burden in the lungs as compared to the untreated control group (M. tuberculosis H37Rv [4]; mouse model infected by M. tuberculosis H37Rv, lungs): 3.8 logs colony forming units (CFU)
COc1ncccc1Nc1cc2nc3ccccc3n(-c3ccc(F)c(F)c3)c-2cc1=NC1CCC1 [Compound 17, 5-(3,4-Difluorophenyl)-3-cyclobutylimino-2-(2-methoxy-3-pyridyl)amino-3,5-dihydrophenazine]	> 64	0.04 (≈ 0.0827 µM)	200 to 201		
COc1ncccc1Nc1cc2nc3ccccc3n(-c3ccc(F)c(F)c3)c-2cc1=NC1CC1 [Compound 16, 5-(3,4-Difluorophenyl)-3-cyclopropylimino-2-(2-methoxy-3-pyridyl)amino-3,5-dihydrophenazine]	25.5 (≈ 54.3 µM)	0.014 (≈ 0.0298 µM)	213 to 214	1822	
COc1ncccc1Nc1cc2nc3ccccc3n(-c3cccc(Cl)c3)c-2cc1=NC1CCOCC1 [Compound 14, 5-(3-Chlorophenyl)-3-(4-tetrahydropyranyl)imino-2-(2-methoxy-3-pyridyl)amino-3,5-dihydrophenazine]	23.4 (≈ 45.7 µM)	0.025 (≈ 0.0488 µM)	203 to 206	936	
COc1ncccc1Nc1cc2nc3ccccc3n(-c3cccc(F)c3)c-2cc1=NC1CCOCC1 [Compound 9, 5-(3-Fluorophenyl)-3-(4-tetrahydropyranyl)imino-2-(2-methoxy-3-pyridyl)amino-3,5-dihydro-phenazine]	9.21 (≈ 18.6 µM)	0.061 (≈ 0.123 µM)	190 to 191	151	
COc1ncccc1Nc1cc2nc3ccccc3n(-c3cccc(Cl)c3)c-2cc1=NC1CC1 [Compound 11, 5-(3-Chlorophenyl)-3-cyclopropylimino-2-(2-methoxy-3-pyridyl)amino-3,5-dihydrophenazine]	50.9 (≈ 109 µM)	0.03 (≈ 0.0641 µM)	211 to 214	1696	
COc1ncccc1Nc1cc2nc3ccccc3n(-c3ccc(F)c(F)c3)c-2cc1=NC1CCC(OC)CC1 (centres unmarked) [Compound 20, 5-(3,4-Difluorophenyl)-3-(4-methoxycyclohexyl)imino-2-(2-methoxy-3-pyridyl)amino-3,5-dihydro-phenazine]	> 64	0.056 (≈ 0.103 µM)	214 to 215		
COc1ncccc1Nc1cc2nc3ccccc3n(-c3cccc(Cl)c3)c-2cc1=NC1CCC1 [Compound 12, 5-(3-Chlorophenyl)-3-cyclobutylimino-2-(2-methoxy-3-pyridyl)amino-3,5-dihydrophenazine]	> 64	0.06 (≈ 0.124 µM)	205 to 208		
COc1ncccc1Nc1cc2nc3ccccc3n(-c3ccc(Cl)c(Cl)c3)c-2cc1=NC1CCOCC1 [Compound 24, 5-(3,4-Dichlorophenyl)-3-(4-tetrahydropyranyl)imino-2-(2-methoxy-3-pyridyl)amino-3,5-dihydro-phenazine]	> 64	0.08 (≈ 0.146 µM)	232 to 233		
COc1ncccc1Nc1cc2nc3ccccc3n(-c3ccc(F)c(F)c3)c-2cc1=NC1CCOCC1 [Compound 19, 5-(3,4-Difluorophenyl)-3-(4-tetrahydropyranyl)imino-2-(2-methoxy-3-pyridyl)amino-3,5-dihydro-phenazine]	> 64	0.067 (≈ 0.13 µM)	255 to 256		
COc1ncccc1Nc1cc2nc3ccccc3n(-c3ccc(Cl)c(Cl)c3)c-2cc1=NC1CCC(OC)CC1 (centres unmarked) [Compound 25, 5-(3,4-Dichlorophenyl)-3-(4-methoxycyclohexyl)imino-2-(2-methoxy-3-pyridyl)amino-3,5-dihydro-phenazine]	> 64	0.059 (≈ 0.103 µM)	215 to 217		
COc1ncccc1Nc1cc2nc3ccccc3n(-c3cccc(Cl)c3)c-2cc1=NC1CCCCC1 [Compound 13, 5-(3-Chlorophenyl)-3-cyclohexylimino-2-(2-methoxy-3-pyridyl)amino-3,5-dihydrophenazine]	53.3 (≈ 104 µM)	0.057 (≈ 0.112 µM)	197 to 201	934	
COc1ncccc1Nc1cc2nc3ccccc3n(-c3ccc(Cl)c(Cl)c3)c-2cc1=NC1CCC1 [Compound 23, 5-(3,4-Dichlorophenyl)-3-cyclobutylimino-2-(2-methoxy-3-pyridyl)amino-3,5-dihydrophenazine]	> 64	0.06 (≈ 0.116 µM)	216 to 219		
COc1ncccc1Nc1cc2nc3ccccc3n(-c3cccc(F)c3)c-2cc1=NC(C)C [Compound 8, 5-(3-Fluorophenyl)-3-isopropylimino-2-(2-methoxy-3-pyridyl)amino-3,5-dihydrophenazine]	2.65 (≈ 5.84 µM)	0.06 (≈ 0.132 µM)	198 to 199	44	
COc1ncccc1Nc1cc2nc3ccccc3n(-c3cccc(Cl)c3)c-2cc1=NC(C)C [Compound 10, 5-(3-Chlorophenyl)-3-isopropylimino-2-(2-methoxy-3-pyridyl)amino-3,5-dihydrophenazine]	5.1 (≈ 10.9 µM)	0.25 (≈ 0.532 µM)	215 to 217	20	
CC(C)/N=c1\cc2n(-c3ccc(Cl)cc3)c3ccccc3nc-2cc1Nc1ccc(Cl)cc1 [CFZ, Clofazimine, reference compound]	68.6 (≈ 145 µM)	0.12 (≈ 0.253 µM)		572	AUC(0-t) [6]: 8220 ng·h/mL; Cmax [6]: 470 ng/mL; Tmax [6]: 2 h; half-life [6]: 27.1 h; logCFU/lung (M. tuberculosis H37Rv [4]): 4.29 ± 0.58
COc1ncccc1Nc1cc2nc3ccccc3n(-c3ccc(F)cc3)c-2c/c1=N\C(C)C [TBI-1004, reference compound]	> 64	0.038 (≈ 0.0838 µM)			
COc1ncccc1Nc1cc2nc3ccccc3n(-c3ccc(F)c(F)c3)c-2cc1=NC1CCCCC1 [Compound 18, 5-(3,4-Difluorophenyl)-3-cyclohexylimino-2-(2-methoxy-3-pyridyl)amino-3,5-dihydrophenazine]	> 64	0.03 (≈ 0.0586 µM)	218 to 219		
COc1ncccc1Nc1cc2nc3ccccc3n(-c3ccc(Cl)c(Cl)c3)c-2cc1=NC(C)C [Compound 21, 5-(3,4-Dichlorophenyl)-3-isopropylimino-2-(2-methoxy-3-pyridyl)amino-3,5-dihydrophenazine]	> 64	0.099 (≈ 0.196 µM)	245 to 247		
